13 molecules from patent publication US20260207704A1, “STAPLED PEPTIDES AND METHODS THEREOF” (priority 2022, published 2026) can be followed below.

Read-outs that look alike come from different tables or passages of the source. *1 amine or outer side, *2 acyl side, *3 side chain or, on linkers, in order; H or OH if unused. Bridges are numbered along the chain shown (N, C = ends). Primed or numbered codes have the meaning given here. [ ]: non-standard residue; d: D form. PyrS2(6) = (S)-3-amino-1-((pent-4-en-1-yloxy)carbonyl)pyrrolidine-3-carboxylic acid, stapled with another olefin-containing amino acid residue through the olefin group, O=C(OCCCC=[*:3])N1CC[C@@](N[*:1])(C(=O)[*:2])C1; B5(4) = 2-amino-2-(pent-4-en-1-yl)hept-6-enoic acid, stapled through each of its two olefin groups with other olefin-containing amino acid residues, O=C(C(CCCC=[*:3])(CCCC=[*:4])N[*:1])[*:2]; PyrS2″ = (S)-3-amino-1-((pent-4-en-1-yloxy)carbonyl)pyrrolidine-3-carboxylic acid (olefin stapling residue), C=CCCCOC(=O)N1CC[C@@](N[*:1])(C(=O)[*:2])C1; B5″ = 2-amino-2-(pent-4-en-1-yl)hept-6-enoic acid (bis-olefin stapling residue), C=CCCCC(CCCC=C)(N[*:1])C(=O)[*:2]; Phe(3-COOH) = N[C@@H](Cc1cccc(C(=O)O)c1)C(=O)O; 2F3MeF = Cc1cccc(C[C@H](N[*:1])C(=O)[*:2])c1F; Bta = N[C@@H](Cc1csc2ccccc12)C(=O)O; αAllylPro = C=CC[C@@]1(C(=O)O)CCCN1; tBuAla = CC(C)(C)C[C@H](N)C(=O)O; 3Thi = N[C@@H](Cc1ccsc1)C(=O)O; TriAzLys(3) = not defined here; hSer = N[C@@H](CCO)C(=O)O; 2F3MeF(4) = Phe analogue; GlnR = not defined here; sAla = not defined here; Aib = CC(C)(N)C(=O)O

One experiment relates to DLD1 reporter. The experiment is described as follows: reporter assay (DLD1 reporter assay). The settings on record: read-out: DLD1 4% Abs IC50. Format: cell-based. (In general: A reporter such as luciferase makes a cellular process visible.)
Another experiment relates to COLO320DM cells. The experiment is described as follows: COLO320DM proliferation assay. Type of experiment: cell-based, human. The settings on record: read-out: COLO320DM Proliferation Abs IC50. Here is the method:
Various technologies can be utilized to assess technologies of the present disclosure. For example, in some embodiments, solubility, LogD, interactions with targets, etc. of various agents such as stapled peptides were assessed using technologies described in WO 2022/261257 (e.g., those in its Examples). In some embodiments, solubility, shake flask LogD, and binding to beta-catenin were assessed. In some embodiments, an assay for assessing interactions, e.g., with beta-catenin, was fluorescence polarization as described in WO 2022/261257. In some embodiments, an assay was Nano-BRET target engagement assay that assessed beta-catenin/TCF4 engagement as described in WO 2022/261257. In some embodiments, an assay was a reporter assay as reported in Example 4 of WO 2022/261257. In some embodiments, an assay was a COLO320DM proliferation assay as reported in Example 4 of WO 2022/261257.
Among other things, provided technologies can inhibit proliferation of various cells including various cancer cells. In some embodiments, provided technologies modulate WNT specific transcription. In some embodiments, provided technologies induce cell cycle arrest. In some embodiments, provided technologies induce G1 cell cycle arrest. In some embodiments, provided technologies increased proportion of cells in G1 phase of cell cycle. As confirmed in FIG. 3, provided technologies can inhibit proliferation of COLO320DM, which is a colorectal cell line comprising various mutations such as APC, TP53, etc., modulate WNT specific transcription such as of AXIN2 and CXCL12, and induce G1 cell cycle arrest. In some embodiments, it was confirmed that provided technologies can reduce proportion of cells in S phase of cell cycle.

The target in a further experiment is beta-catenin (human). The experiment is described as follows: fluorescence polarization; bin >750 nM. In general terms: In fluorescence polarisation assays a small probe gives low polarisation when free and higher when bound to something large.

On to `CC(=O)N1CCC[C@]12CC=CCCCC1(CCCC=CCCCOC(=O)N3CC[C@@]4(C3)NC(=O)[C@H](CCCCNC(=O)CC[C@@H](C(=O)N3CCC[C@H]3CO)NC(=O)[C@H](Cc3csc5ccccc35)NC(=O)[C@H](Cc3ccsc3)NC4=O)NC(=O)[C@H](Cc3ccccc3)NC(=O)[C@H](C)NC(=O)[C@H](C)NC(=O)[C@H](Cc3cccc(C(=O)O)c3)NC(=O)[C@H](CC(=O)O)NC1=O)NC(=O)[C@H](CC(C)(C)C)NC(=O)[C@H](CC(=O)O)NC2=O` (relative stereo) [I-64, Ac-PL3-Asp-Npg-B5-Asp-3COOHF-Ala-Ala-Phe-Lys*3-PyrS2-3Thi-BztA-GlnR*3-Prool], for which the IC50 in the experiment on DLD1 reporter (DLD1 4%) lay within 1 to 5 µM; in the experiment with COLO320DM cells, 10 to 20 µM.
For `CC(=O)N1CCC[C@]12CC=CCCCC1(CCCC=CCCCOC(=O)N3CC[C@@]4(C3)NC(=O)[C@H](CCCCNC(=O)CC[C@@H](C(=O)N[C@@H](C)C(N)=O)NC(=O)[C@H](Cc3csc5ccccc35)NC(=O)[C@H](Cc3ccccc3C(F)(F)F)NC4=O)NC(=O)[C@H](Cc3ccccc3)NC(=O)[C@H](C)NC(=O)C(C)(C)NC(=O)[C@H](Cc3cccc(C(=O)O)c3)NC(=O)[C@H](CC(=O)O)NC1=O)NC(=O)[C@H](CC(C)(C)C)NC(=O)[C@H](CC(=O)O)NC2=O` (single isomer, unassigned) [I-69, Ac-PL3-Asp-Npg-B5-Asp-3COOHF-Aib-Ala-Phe-Lys*3-PyrS2-2F3MeF-BztA-GlnR*3-Ala-NH2], the values for the IC50 in the experiment on DLD1 reporter (DLD1 4%) and with COLO320DM cells were at most 1 µM and at most 10 µM, respectively.
The matching figures for `CC(=O)N1CCC[C@]12CC=CCCCC1(CCCC=CCCCOC(=O)N3CC[C@@]4(C3)NC(=O)[C@H](CCCCNC(=O)CC[C@@H](C(=O)N[C@@H](CC(C)C)C(=O)N[C@@H](CO)C(N)=O)NC(=O)[C@H](Cc3csc5ccccc35)NC(=O)[C@H](Cc3ccccc3C(F)(F)F)NC4=O)NC(=O)[C@H](Cc3ccccc3)NC(=O)[C@H](C)NC(=O)C(C)(C)NC(=O)[C@H](Cc3cccc(C(=O)O)c3)NC(=O)[C@H](CC(=O)O)NC1=O)NC(=O)[C@H](CC(C)(C)C)NC(=O)[C@H](CC(=O)O)NC2=O` (relative stereo) [I-138, Ac-PL3-Asp-Npg-B5-Asp-3COOHF-Aib-Ala-Phe-Lys*3-PyrS2-2F3MeF-BztA-GlnR*3-Leu-Ser-NH2]: at most 1 µM and at most 10 µM.
As to `CC(=O)N1CCC[C@]12CC=CCCCC1(CCCC=CCCCOC(=O)N3CC[C@@]4(C3)NC(=O)[C@H](CCCCn3cc(nn3)C[C@@H](C(=O)N[C@@H](C)C(N)=O)NC(=O)[C@H](Cc3csc5ccccc35)NC(=O)[C@H](Cc3ccsc3)NC4=O)NC(=O)[C@H](Cc3ccccc3)NC(=O)[C@H](C)NC(=O)C(C)(C)NC(=O)[C@H](Cc3cccc(C(=O)O)c3)NC(=O)[C@H](CC(=O)O)NC1=O)NC(=O)[C@H](CC(C)(C)C)NC(=O)[C@H](CC(=O)O)NC2=O` (single isomer, unassigned) [I-335, Ac-PL3-Asp-Npg-B5-Asp-3COOHF-Aib-Ala-Phe-TriAzLys*3-PyrS2-3Thi-BztA-sAla*3-Ala-NH2], the IC50 in the experiment with DLD1 reporter (DLD1 reporter, 4%) was at most 1 µM; in the experiment on COLO320DM cells, at most 10 µM.
Regarding `CC(=O)N1CCC[C@]12CC=CCCCC1(CCCC=CCCCOC(=O)N3CC[C@@]4(C3)NC(=O)[C@H](CCCCNC(=O)CC[C@@H](C(=O)N[C@@H](C)C(N)=O)NC(=O)[C@H](Cc3csc5ccccc35)NC(=O)[C@H](Cc3ccccc3C)NC4=O)NC(=O)[C@H](Cc3ccccc3)NC(=O)[C@H](C)NC(=O)C(C)(C)NC(=O)[C@H](Cc3cccc(C(=O)O)c3)NC(=O)[C@H](CC(=O)O)NC1=O)NC(=O)[C@H](CC(C)(C)C)NC(=O)[C@H](CC(=O)O)NC2=O` (relative stereo) [I-294, Ac-PL3-Asp-Npg-B5-Asp-3COOHF-Aib-Ala-Phe-Lys*3-PyrS2-2MeF-BztA-GlnR*3-Ala-NH2], in the experiment with COLO320DM cells, the IC50 was at most 10 µM.
Consider `CC(=O)N1CCC[C@]12CC=CCCCC1(CCCC=CCCCOC(=O)N3CC[C@@]4(C3)NC(=O)[C@H](CCCCn3cc(nn3)COC[C@@H](C(=O)N[C@@H](C)C(N)=O)NC(=O)[C@H](Cc3csc5ccccc35)NC(=O)[C@H](Cc3ccsc3)NC4=O)NC(=O)[C@H](Cc3ccccc3)NC(=O)[C@H](C)NC(=O)C(C)(C)NC(=O)[C@H](Cc3cccc(C(=O)O)c3)NC(=O)[C@H](CC(=O)O)NC1=O)NC(=O)[C@H](CC(C)(C)C)NC(=O)[C@H](CC(=O)O)NC2=O` (relative stereo) [I-262, Ac-PL3-Asp-Npg-B5-Asp-3COOHF-Aib-Ala-Phe-TriAzLys*3-PyrS2-3Thi-BztA-sCH2S*3-Ala-NH2], for which the IC50 with DLD1 reporter (DLD1 4%) was at most 1 µM; in the experiment on COLO320DM cells, at most 10 µM.
As for `CC(=O)N1CCC[C@]12CC=CCCCC1(CCCC=CCCCOC(=O)N3CC[C@@]4(C3)NC(=O)[C@H](CCCCNC(=O)CC[C@@H](C(=O)N[C@@H](C)C(N)=O)NC(=O)[C@H](Cc3csc5ccccc35)NC(=O)[C@H](Cc3ccncc3)NC4=O)NC(=O)[C@H](Cc3ccccc3)NC(=O)[C@H](C)NC(=O)C(C)(C)NC(=O)[C@H](Cc3cccc(C(=O)O)c3)NC(=O)[C@H](CC(=O)O)NC1=O)NC(=O)[C@H](CC(C)(C)C)NC(=O)[C@H](CC(=O)O)NC2=O` (relative stereo) [I-301, Ac-PL3-Asp-Npg-B5-Asp-3COOHF-Aib-Ala-Phe-Lys*3-PyrS2-4PyrA-BztA-GlnR*3-Ala-NH2], the IC50 in the experiment on COLO320DM cells was above 20 µM.
On the same count and under the same terms, the figure for `CCCC[C@@H]1NC(=O)[C@H](CC(=O)O)NC(=O)[C@]2(CC=CCCCC3(CCCC=CCCCOC(=O)N4CC[C@@]5(C4)NC(=O)[C@H](CCCCNC(=O)CC[C@@H](C(=O)N[C@@H](C)C(N)=O)NC(=O)[C@H](Cc4csc6ccccc46)NC(=O)[C@H](Cc4ccsc4)NC5=O)NC(=O)[C@H](Cc4ccccc4)NC(=O)[C@H](C)NC(=O)C(C)(C)NC(=O)[C@H](Cc4cccc(C(=O)O)c4)NC(=O)[C@H](CC(=O)O)NC3=O)NC1=O)CCCN2C(C)=O` (relative stereo) [I-245, Ac-PL3-Asp-nLeu-B5-Asp-3COOHF-Aib-Ala-Phe-Lys*3-PyrS2-3Thi-BztA-GlnR*3-Ala-NH2] is at most 10 µM.
With `CCCC[C@@H]1NC(=O)[C@H](Cc2cccc(C(=O)O)c2)NC(=O)[C@H](CC(=O)O)NC(=O)C2(CCCC=CCCCOC(=O)N3CC[C@@]4(C3)NC(=O)[C@H](CCCCNC(=O)CC[C@@H](C(=O)N[C@@H](C)C(N)=O)NC(=O)[C@H](Cc3csc5ccccc35)NC(=O)[C@H](Cc3ccsc3)NC4=O)NC(=O)[C@H](Cc3ccccc3)NC(=O)[C@H](C)NC1=O)CCCC=CC[C@]1(CCCN1C(C)=O)C(=O)N[C@@H](CC(=O)O)C(=O)N[C@@H](CC(C)(C)C)C(=O)N2` (relative stereo) [I-70, Ac-PL3-Asp-Npg-B5-Asp-3COOHF-nLeu-Ala-Phe-Lys*3-PyrS2-3Thi-BztA-GlnR*3-Ala-NH2], the IC50 was at most 1 µM in the experiment with DLD1 reporter (DLD1 4%) and at most 10 µM in the experiment on COLO320DM cells.
For the molecule `CC(=O)N1CCC[C@]12CC=CCCCC1(CCCC=CCCCOC(=O)N3CC[C@@]4(C3)NC(=O)[C@H](CCCCNC(=O)CC[C@@H](C(=O)N[C@@H](C)C(N)=O)NC(=O)[C@H](Cc3csc5ccccc35)NC(=O)[C@H](Cc3ccsc3)NC4=O)NC(=O)[C@H](Cc3ccccc3)NC(=O)[C@H](C)NC(=O)[C@H](Cc3ccccc3)NC(=O)[C@H](Cc3cccc(C(=O)O)c3)NC(=O)[C@H](CC(=O)O)NC1=O)NC(=O)[C@H](CC(C)(C)C)NC(=O)[C@H](CC(=O)O)NC2=O` (relative stereo) [I-386, Ac-PL3-Asp-Npg-B5-Asp-3COOHF-Phe-Ala-Phe-Lys*3-PyrS2-3Thi-BztA-GlnR*3-Ala-NH2], the IC50 in the experiment on COLO320DM cells was above 20 µM.

B1: I-28 (peptide)
peptide: Ac-[αAllylPro]D[tBuAla][B5(4)]D[Phe(3-COOH)][sAla]AF[TriAzLys(3)][PyrS2(6)][2F3MeF(4)][Bta]Q-NH2
modifications: triazole 7-10; not fully specified (bridges); printed as Ac-PL3-Asp-Npg-B5-Asp-3COOHF-sAla*3-Ala-Phe-TriAzLys*3-PyrS2-2F3MeF-BztA-Gln-NH2; reading uncertain
B1 displayed an IC50 in the experiment with beta-catenin (human) below 1 µM.

B2: I-147 (peptide)
peptide: Ac-[αAllylPro][hSer][tBuAla][B5″]D[Phe(3-COOH)][Aib]AFK[PyrS2″][2F3MeF][Bta][GlnR]LS-NH2
modifications: bridge 10-14; reading uncertain; also: PL3-B5 and PyrS2 links not placed, printed as Ac-PL3-Hse-Npg-B5-Asp-3COOHF-Aib-Ala-Phe-Lys*3-PyrS2-2F3MeF-BztA-GlnR*3-Leu-Ser-NH2
Turning to B2, in the experiment with beta-catenin (human), the IC50 is below 1 µM.

B3: I-26 (peptide)
peptide: Ac-[αAllylPro]D[tBuAla][B5(4)]DD[sAla]AF[TriAzLys(3)][PyrS2(6)][3Thi][Bta]Q-NH2
modifications: triazole 7-10; not fully specified (bridges); printed as Ac-PL3-Asp-Npg-B5-Asp-Asp-sAla*3-Ala-Phe-TriAzLys*3-PyrS2-3Thi-BztA-Gln-NH2; reading uncertain
With B3, the IC50 with beta-catenin (human) was below 1 µM.
